Measured values as given in US20250320206A1, “STAT6 DEGRADERS” (Gilead Sciences, Inc., priority 2024, published 2025).
pEC50: −log10 of the molar value.

Each compound was assayed against T1, STAT6 (Homo sapiens, UniProt P42226) (assay: Stat6 Degrader Assay (HiBiT based, HeLa LgBiT clone 4.14)). Conditions: HeLa LgBiT clone 4.14 HiBiT-STAT6, 4-24 h incubation; read-out: STAT6 degradation Emax.
T1 construct: These cells express endogenous STAT6; host or cells: HeLa LgBiT clone 4.14
T1 sequence (P42226 1-847): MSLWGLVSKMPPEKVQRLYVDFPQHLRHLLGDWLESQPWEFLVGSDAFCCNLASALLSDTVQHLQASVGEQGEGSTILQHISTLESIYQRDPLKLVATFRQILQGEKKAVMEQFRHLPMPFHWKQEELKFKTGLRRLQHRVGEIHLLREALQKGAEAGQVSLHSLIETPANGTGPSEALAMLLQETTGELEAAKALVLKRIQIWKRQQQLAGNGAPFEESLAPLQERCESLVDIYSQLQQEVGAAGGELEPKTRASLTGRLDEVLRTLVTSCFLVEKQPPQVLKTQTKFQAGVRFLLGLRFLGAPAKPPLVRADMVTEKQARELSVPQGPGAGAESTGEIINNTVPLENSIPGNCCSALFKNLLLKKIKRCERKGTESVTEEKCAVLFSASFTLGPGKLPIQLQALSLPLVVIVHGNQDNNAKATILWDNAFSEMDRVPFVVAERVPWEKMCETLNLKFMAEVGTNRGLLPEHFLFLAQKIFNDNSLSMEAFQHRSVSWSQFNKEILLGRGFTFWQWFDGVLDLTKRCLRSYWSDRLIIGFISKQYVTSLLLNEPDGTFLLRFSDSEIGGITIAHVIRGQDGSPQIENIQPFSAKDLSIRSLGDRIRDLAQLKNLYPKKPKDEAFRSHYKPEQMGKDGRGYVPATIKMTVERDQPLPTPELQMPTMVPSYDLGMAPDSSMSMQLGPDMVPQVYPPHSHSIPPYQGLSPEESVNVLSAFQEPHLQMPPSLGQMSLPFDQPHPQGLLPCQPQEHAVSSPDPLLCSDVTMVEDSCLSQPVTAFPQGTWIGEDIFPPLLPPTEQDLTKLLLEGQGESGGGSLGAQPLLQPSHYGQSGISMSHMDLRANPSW
Assay type: cell-based
In short: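 HeLa LgBiT clone 4.14 cells with CRISPR HiBiT-tagged endogenous STAT6, 5000 cells/well, compound dosed then incubated 4-24 h at 37° C, 5% CO2. Nano-Glo substrate added, 0.5 h, luminescence read as non-degraded STAT6. Terfenadine 50 μM (cell kill) defines 100% degradation.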

Emax	SMILES
< 20%	C[C@H](c1cc2c(-n3ccc4[nH]ncc4c3=O)ccnc2n1C)N1CCC(c2ccc(C(=O)N3CCC(CN4CCN(Cc5ccc6c(c5)oc(=O)n6C5CCC(=O)NC5=O)CC4)CC3)cc2)CC1 (stereo partly drawn) [Example 3u265, 3-(6-((4-((1-(4-(1-((R)-1-(1-methyl-4-(4-oxo-1,4-dihydro-5H-pyrazolo[4,3-c]pyridin-5-yl)-1H-pyrrolo[2,3-b]pyridin-2-yl)ethyl)piperidin-4-yl)benzoyl)piperidin-4-yl)methyl)piperazin-1-yl)methyl)-2-oxobenzo[d]oxazol-3 (2H)-yl)piperidine-2,6-dione]
50 to 60%	Cc1cc(C(=O)N2CCC(CN3CCC(Cc4ccc5c(c4)n(C)c(=O)n5C4CCC(=O)NC4=O)CC3)CC2)cc(F)c1C1CCN(Cc2cc3c(-n4ccc(N)cc4=O)ccnc3n2C)CC1 (stereo not shown) [Example 3u267, 3-(5-((1-((1-(4-(1-((4-(4-amino-2-oxopyridin-1 (2H)-yl)-1-methyl-1H-pyrrolo[2,3-b]pyridin-2-yl)methyl)piperidin-4-yl)-3-fluoro-5-methylbenzoyl)piperidin-4-yl)methyl)piperidin-4-yl)methyl)-3-methyl-2-oxo-2,3-dihydro-1H-benzo[d]imidazol-1-yl)piperidine-2,6-dione]
< 20%	CNc1cc(=O)n(-c2ccnc3c2cc([C@H](C)N2CC=C(c4c(C)cc(C(=O)N5CCC(CN6CCN(c7ccc8c(c7)n(C7CCC(=O)NC7=O)c(=O)n8C)CC6)CC5)cc4F)CC2)n3C)cc1F (stereo partly drawn) [Example 3u272, 3-(6-(4-((1-(3-fluoro-4-(1-((S)-1-(4-(5-fluoro-4-(methylamino)-2-oxopyridin-1 (2H)-yl)-1-methyl-1H-pyrrolo[2,3-b]pyridin-2-yl)ethyl)-1,2,3,6-tetrahydropyridin-4-yl)-5-methylbenzoyl)piperidin-4-yl)methyl)piperazin-1-yl)-3-methyl-2-oxo-2,3-dihydro-1H-benzo[d]imidazol-1-yl)piperidine-2,6-dione]
< 20%	CNc1ccn(-c2ccnc3c2cc(CN2CCC(c4c(F)cc(C(=O)N5CCC(CN6CCN(c7cc8c(cc7F)n(C7CCC(=O)NC7=O)c(=O)n8C)CC6)CC5)cc4F)CC2)n3C)c(=O)c1F (stereo not shown) [Example 3u274, 3-(5-(4-((1-(3,5-difluoro-4-(1-((4-(3-fluoro-4-(methylamino)-2-oxopyridin-1 (2H)-yl)-1-methyl-1H-pyrrolo[2,3-b]pyridin-2-yl)methyl)piperidin-4-yl)benzoyl)piperidin-4-yl)methyl)piperazin-1-yl)-6-fluoro-3-methyl-2-oxo-2,3-dihydro-1H-benzo[d]imidazol-1-yl)piperidine-2,6-dione]

Same assay, conditions: HeLa LgBiT clone 4.14 HiBiT-STAT6, 4-24 h incubation; values given for compounds with >80% Emax; geometric mean; read-out: STAT6 degradation DC50

DC50	SMILES
57.4 nM	CNc1ccn(-c2ccnc3c2cc([C@H](C)N2CC=C(c4c(C)cc(C(=O)N5CCn6c(nnc6C6CCN(Cc7ccc8c(c7)n(C)c(=O)n8C7CCC(=O)NC7=O)CC6)C5)cc4F)CC2)n3C)c(=O)c1 (stereo partly drawn) [Example 3u275, 3-(5-((4-(7-(3-fluoro-5-methyl-4-(1-((S)-1-(1-methyl-4-(4-(methylamino)-2-oxopyridin-1 (2H)-yl)-1H-pyrrolo[2,3-b]pyridin-2-yl)ethyl)-1,2,3,6-tetrahydropyridin-4-yl)benzoyl)-5,6,7,8-tetrahydro-[1,2,4]triazolo[4,3-a]pyrazin-3-yl)piperidin-1-yl)methyl)-3-methyl-2-oxo-2,3-dihydro-1H-benzo[d]imidazol-1-yl)piperidine-2,6-dione]
4.3 nM	CNc1cc(=O)n(-c2ccnc3c2cc([C@H](C)N2CC=C(c4c(C)cc(C(=O)N5CCC(CN6CCN(c7ccc8c(c7)n(C7CC7)c(=O)n8C7CCC(=O)NC7=O)CC6)CC5)cc4F)CC2)n3C)cc1F (stereo partly drawn) [Example 3u276, 3-(3-cyclopropyl-5-(4-((1-(3-fluoro-4-(1-((S)-1-(4-(5-fluoro-4-(methylamino)-2-oxopyridin-1 (2H)-yl)-1-methyl-1H-pyrrolo[2,3-b]pyridin-2-yl)ethyl)-1,2,3,6-tetrahydropyridin-4-yl)-5-methyl-benzoyl)piperidin-4-yl)methyl)piperazin-1-yl)-2-oxo-2,3-dihydro-1H-benzo[d]imidazol-1-yl)piperidine-2,6-dione]
0.4 nM	CNc1ccn(-c2ccnc3c2cc([C@H](C)N2CC=C(c4c(C)cc(C(=O)N5CCn6nc(CN7CCN(c8ccc9c(c8)n(C)c(=O)n9C8CCC(=O)NC8=O)CC7)cc6C5)cc4F)CC2)n3C)c(=O)c1 (stereo partly drawn) [Example 3u277, 3-(5-(4-((5-(3-fluoro-5-methyl-4-(1-((S)-1-(1-methyl-4-(4-(methylamino)-2-oxopyridin-1 (2H)-yl)-1H-pyrrolo[2,3-b]pyridin-2-yl)ethyl)-1,2,3,6-tetrahydropyridin-4-yl)benzoyl)-4,5,6,7-tetrahydropyrazolo[1,5-a]pyrazin-2-yl)methyl)piperazin-1-yl)-3-methyl-2-oxo-2,3-dihydro-1H-benzo[d]imidazol-1-yl)piperidine-2,6-dione]

These compounds were tested on Eotaxin-3 release in human whole blood stimulated with IL-4 (assay: Human Whole Blood Eotaxin-3 Assay (IL-4 stimulated eotaxin-3 release)). Conditions: IL-4 stimulation, 48 h, values given for compounds with >80% Emax, geometric mean.
Assay type: cell-based
Method: Human Whole Blood Eotaxin-3 Assay
This was a human whole blood assay using recombinant human Interleukin 4 to stimulate the blood and measuring the ability of the test compounds to inhibit eotaxin-3 release. The biological activities of the test compounds have been tested in human whole blood stimulated with IL-4 measuring Eotaxin-3 release. The test compounds were added to 384 well clear flat-bottom plate in a 4-fold serial dilution in triplicates using a liquid handler. Human whole blood stabilized in lithium-heparin tubes was added in a volume of 65 μL per well, resulting in a final DMSO concentration of 0.5%. The plate is incubated for 2 h at 37° C. under 5% CO2/95% air. Subsequently, 5 μL of recombinant human IL-4 (R&D Systems, cat #204-ILB) was added to the wells to a final concentration of […]. The plate was incubated for 48 h at 37° C. under 5% CO2/95% air. The plate was spun down for 10 minutes at 500×g and 20 μL supernatant was harvested and transferred to a 384 well v-bottom plate using a liquid handler and stored at −20° C. until further analysis. 10 μL supernatant was used to measure the level of Eotaxin-3 (CCL26) using Human Eotaxin-3 MSD kit from Mesocsale (Cat #K251UEK-4). The assay was performed according to the manufacture instructions.
The data from the human whole blood eotaxin-3 assay is shown in FIG. 2 for Examples 3u208, 3u246, 3u118, 3u119, 3u120, and 3u74 (where the effect in % is plotted against the test concentration in M on a log scale).

SMILES	pEC50
CNc1ccn(-c2ccnc3c2cc(CN2CCC(c4c(F)cc(C(=O)N5CCC(CN6CCN(c7ccc8c(c7)C7(CC7)C(=O)N8[C@@H]7CCC(=O)NC7=O)CC6)CC5)cc4F)CC2)n3C)c(=O)c1 (single isomer, unassigned) [Example 3u150]	7.41
CNc1ccn(-c2ccnc3c2cc([C@H](C)N2CC=C(c4c(C)cc(C(=O)N5CCC(CN6CCN(c7ccc8c(c7)C(C)(C)C(=O)N8[C@H]7CCC(=O)NC7=O)CC6)CC5)cc4F)CC2)n3C)c(=O)c1 (single isomer, unassigned) [Example 3u280]	7.89
CNc1cc(=O)n(-c2ccnc3c2cc(CN2CCC(c4c(F)cc(C(=O)N5CCC(CN6CCN(c7ccc8c(c7)C7(CC7)C(=O)N8[C@H]7CCC(=O)NC7=O)CC6)CC5)cc4F)CC2)n3C)cc1F (single isomer, unassigned) [Example 3u288]	7.05
CNc1ccn(-c2ccnc3c2cc(CN2CCC(c4c(F)cc(C(=O)N5CCC(CN6CCN(c7cc8c(cc7F)n(C7CCC(=O)NC7=O)c(=O)n8C)CC6)CC5)cc4F)CC2)n3C)c(=O)n1 (stereo not shown) [Example 3h43, 3-(5-(4-((1-(3,5-difluoro-4-(1-((1-methyl-4-(4-(methylamino)-2-oxopyrimidin-1 (2H)-yl)-1H-pyrrolo[2,3-b]pyridin-2-yl)methyl)piperidin-4-yl)benzoyl)piperidin-4-yl)methyl)piperazin-1-yl)-6-fluoro-3-methyl-2-oxo-2,3-dihydro-1H-benzo[d]imidazol-1-yl)piperidine-2,6-dione]	8.13

Now from value to compound:

pEC50	SMILES
7.03	CNc1cc(=O)n(-c2ccnc3c2cc([C@H](C)N2CC=C(c4c(C)cc(C(=O)N5CCC(CN6CCN(c7ccc8c(c7)C7(CC7)C(=O)N8[C@H]7CCC(=O)NC7=O)C[C@@H]6C)CC5)cc4F)CC2)n3C)cc1F (single isomer, unassigned) [Example 3u65]
7.72	CNc1cc(=O)n(-c2ccnc3c2cc(CN2CCC(c4c(F)cc(C(=O)N5CCC(CN6CCN(c7ccc8c(c7)C7(CC7)C(=O)N8[C@@H]7CCC(=O)NC7=O)CC6)CC5)cc4F)CC2)n3C)cc1F (single isomer, unassigned) [Example 3u289]
